Legend:
[1] = test system: hepatitis C virus; experiment: Model of viral dynamics modified with Total ε: theoretical effectiveness rate and viral load over a 48 week treatment period; set-up: species or system patients
From the text: The effectiveness of suppression of viral production through treatment in accordance with the methods of the present invention can be calculated through a combination pharmacokinetic and pharmacodynamic analysis with a modified version of the absorption and elimination model described in the art. See Powers K A. et al. (Seminars in Liver Disease, 23 Suppl. 1:13-8, 2003). The absorption and elimination model, which incorporates the Neumann et al. model of viral dynamics, calculates simulated changes in drug concentration and effectiveness of single drug treatment in Equations […], 6, and 7. See Powers K A. et al. (Seminars in Liver Disease, 2003, 23 Suppl. 1:13-8), and Neumann A U, Lam N P, Dahari H, et al. (Science 1998, 282: 103-107). […]
Equation 7 incorporates the effects of a delay between a drug binding to its receptor and beginning its biological action. […] Thus, for t>τ, [formula] the effectiveness rate, ε, of a drug at time, t, is calculated by Equation 7.
For the present invention, the Neumann et al. model of Equation 1 and the absorption and elimination model of Equations 5, 6, and 7, is modified to incorporate calculations for monitoring the effectiveness rate of suppressing viral production by multiple drug treatment through combination therapy with the HCV protease inhibitor and HCV agents including interferon, interferon pegylated, and/or ribavirin. The absorption and elimination model in Equations 5, 6, and 7 is modified by including an effectiveness rate of a combination therapy, Total ε, which is based upon combining the individual efficacy, ε, over time, t, as calculated by Equation 7, for each drug used in the combination therapy of the present invention. The effectiveness rate, Total ε, is calculated with the formula […], where ε(t)Pl is the effectiveness of a HCV protease inhibitor and where ε(t)Ag is the effectiveness of an HCV agent, both independently calculated by Equation 7. […]

[2] = test system: hepatitis C virus; experiment: Parallel group study in patients afflicted with hepatitis C virus, 14 days, mean viral load (HCV RNA); type: in vivo; conditions: either dose (200 mg or 400 mg three times a day orally) in combination with PEG-Intron 1.5 mcg/kg/week
Protocol: Preferably, in the practice of the invention, the concentration of HCV-RNA is quantitatively measured by research-based reverse transcriptase polymerase chain reaction (RT-PCR) assay well known to the skilled clinician. Specifically, the Hepatitis C virus (HCV) RNA is measured by extracting total RNA from plasma or serum samples and using an in-house real-time reverse transcriptase polymerase chain reaction (RT-PCR) assay. The amplification target is the 5′-untranslated region (UTR) of the HCV genome. An internal RNA control is added to each sample to assess the efficiency of RNA extraction. Appropriate negative and positive controls are added in each assay run. The assay method has been validated against the WHO International Standard for HCV. HCV RNA amount in a sample is reported as copies of HCV RNA per mL of sample and also as HCV IU per mL of sample. Results for sample at or above 100 copies of HCV RNA per mL are denoted as POS. On the other hand, ND stands for <100 copies of HCV RNA or <29 IU of HCV per mL of sample. […] With respect to quantifying HCV RNA with the rt-PCR methodology referred to herein, one (1) copy of HCV RNA equals 0.29 IU, such that 100 copies of HCV RNA per milliliter of plasma is 29 International Units per milliliter of plasma. […] HCV genotype is determined by sequencing the PCR amplified DNA fragment of the 5′-UTR of the HCV genome. […]

CC(C)(C)NC(=O)N[C@H](C(=O)N1CC2C([C@H]1C(=O)NC(CC1CCC1)C(=O)C(N)=O)C2(C)C)C(C)(C)C (some centres unmarked) [HCV protease inhibitor]
theoretical effectiveness rate, ε, over time, t ([1]; 200 mg three times a day orally with PEG-Intron 1.5 mcg/kg/week subcutaneously, 48 weeks): 0.989
time of treatment until viral load is below 29 IU/ml plasma (100 copies per ml plasma) ([1]; 200 mg three times a day orally with PEG-Intron 1.5 mcg/kg/week subcutaneously, theoretical calculations): approximately 14 weeks
effectiveness rate, ε, over time, t ([1]; 400 mg three times a day orally with PEG-Intron 1.5 mcg/kg/week subcutaneously, 48 weeks): 0.997
viral load in the second week of treatment [2]: continued to decline
decrease in mean viral load at the end of the first week of treatment ([2]; compared with PEG-Intron alone): much steeper decrease in mean viral load
